Test [1] deals with T1, IDO1 (Homo sapiens, UniProt P14902). As to the kind of experiment: IDO1 Human whole blood Assay. The format is cell-based. Set-up: Human whole blood was drawn in sodium heparin coated tubes from healthy internal donors; from tissue; host or cells: Human whole blood from healthy donors, stimulated with LPS and IFNγ. The following applies: LPS and IFNγ 100 ng/mL, 18 h, kynurenine by LC/MS/MS. The protocol:
Compounds to be tested were serially diluted in ten 3-fold steps in DMSO starting from 10 mM. 3 μL of compound dilutions or DMSO alone were then dispensed from the dilution plate into a polypropylene 96-well assay plate containing 97 μL of RPMI using an Echo 555 acoustic liquid handler (Labcyte). LPS and IFNγ was prepared in RPMI to a 10× of final conc. (1000 ng/mL), final concentration is 100 ng/mL.
Human whole blood was drawn in sodium heparin coated tubes from healthy internal donors. Two hundred forty μL of blood was transferred to each of the wells of a v-bottom 96 well plate. Thirty μL of compound was transferred from intermediate dilution plate, and incubated for 15 min. Thirty μL from stimulants was then transferred to blood and mixed thoroughly. Plate was covered with breathable membrane and incubated at 37° C. for overnight (18 h).
On day 2 isotope labeled standard of kynurenine and tryptophan was made in water at 10× concentration and 30 μL was added to the blood at 3 μM final concentration. The assay plates were centrifuged at 300×G for 10 min with no brake to separate plasma from red blood cells. Sixty μL of plasma samples was removed without disturbing red blood cells. Plasma was diluted with RPMI in 1:1 ratio and proteins were precipitated out with two volume of acetonitrile. The plates were centrifuged at 4000×G for 60 min. Twenty μL of supernatant was carefully transferred to a 384 well plate containing 40 μL of 0.1% formic acid in water and analyzed by LC/MS/MS.
LC/MS/MS analyses were performed using Thermo Fisher's LX4-TSQ Quantum Ultra system. This system consists of four Agilent binary high-performance liquid chromatography (HPLC) pumps and a TSQ Quantum Ultra triple quadruple MS/MS instrument. For each sample, 5 μL were injected onto an Atlantis T3 column (2.1 mm×150 mm, 3 μm particle size) from Waters. The mobile phase gradient pumped at 0.8 mL/min was used to elute the analytes from the column at 25° C. The elution started at 0% B increasing linearly to 25% B at 6.5 min, holding at 25% for 1 min, re-equilibrating to 10 min. Mobile phase A consisted of 0.1% formic acid in water. Mobile phase B consisted of 0.1% of formic acid in acetonitrile. Data was acquired in positive mode using a HESI interface. The operational parameters for the TSQ Quantum Ultra instrument were a spray voltage of 4000 V, capillary temperature of 380° C., vaporizer temperature 400° C., shealth gas 60 arbitrary units, Aux gas 20 arbitrary units, tube lens 85 and collision gas 1.2 mTorr. SRM chromatograms of kynurenine (Q1: 209.2>Q3:94.0) and internal standard (Q1: 215.3>Q3:98.2) were collected for 90 sec. The peak area was integrated by Xcalibur Quan software. The ratios between the kynurenine generated in the reaction and 2D6-Kynurenine spiked-in internal standard were used to generate percentage inhibition and IC50 values. Compounds were titrated and IC50's were calculated by 4 parameter sigmoidal curve fitting formula.
The biological activity data of selective compounds using the IDO1 human whole blood assay described above are summarized in the table below.

For test [2], the target named is T1, IDO1. As to the kind of experiment: IDO1 Cellular Assay in Hela Cells Stimulated with IFNγ. The format is cell-based. The following applies: IFNγ 100 ng/mL, 300 uM L-tryptophan, about 48 hours, fluorescence readout, read-out: IDO1 HELA Cell Assay, IC50. An outline of the steps:
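HeLa cells stimulated with 100 ng/mL IFNγ, supplemented with 300 uM L-tryptophan, incubated 48 h at 37° C with ten 3-fold compound dilutions. Unstimulated cells served as Max-E control. Kynurenine detected by fluorescence (ex 400/em 510 nm) after overnight methyl isonipecotate reaction; IC50 by four-parameter logistic fit.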

One may read the IC50 as the concentration that inhibits the measured activity by half.

T1 sequence (P14902 whole entry): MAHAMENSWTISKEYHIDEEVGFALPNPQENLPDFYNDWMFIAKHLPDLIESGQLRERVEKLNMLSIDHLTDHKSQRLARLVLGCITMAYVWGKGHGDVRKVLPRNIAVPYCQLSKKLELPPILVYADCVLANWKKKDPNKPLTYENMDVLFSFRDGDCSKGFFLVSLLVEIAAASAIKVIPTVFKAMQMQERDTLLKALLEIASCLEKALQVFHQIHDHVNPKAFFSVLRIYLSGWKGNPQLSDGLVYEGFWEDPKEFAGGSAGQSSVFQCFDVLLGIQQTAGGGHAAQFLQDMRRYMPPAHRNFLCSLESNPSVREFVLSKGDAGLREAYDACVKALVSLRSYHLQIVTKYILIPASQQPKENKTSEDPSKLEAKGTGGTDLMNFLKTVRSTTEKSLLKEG

With `CC(C(=O)Nc1ccc(F)cc1)C12CC(NC(=O)c3ccc(Cl)c(Cl)c3)(C1)C2` (single isomer, unassigned) [Example 8, 3,4-dichloro-N-(3-(1-((4-fluorophenyl)amino)-1-oxopropan-2-yl)bicyclo[1.1.1]pentan-1-yl)benzamide], the IC50 in test [1] worked out at 781 nM; in test [2], 3.1 nM.

In the case of `CC(C(=O)Nc1ccc(F)nc1)C12CC(NC(=O)c3ccc(Cl)c(Cl)c3)(C1)C2` (single isomer, unassigned) [Example 14, 3,4-dichloro-N-(3-(1-((6-fluoropyridin-3-yl)amino)-1-oxopropan-2-yl)bicyclo[1.1.1]pentan-1-yl)benzamide], the IC50 came out at 406 nM in test [1] and 6.16 nM in test [2].

With `O=C(NC12CC(C3(C(=O)Nc4ccc(F)cc4)CC3)(C1)C2)c1ccc(Cl)c(Cl)c1` [Example 100, 3,4-Dichloro-N-(3-(1-((4-fluorophenyl)carbamoyl)cyclopropyl)bicyclo[1.1.1]pentan-1-yl)benzamide], the IC50 in test [1] came to 454 nM; in test [2] it was 3.35 nM. The corresponding values for `C[C@H](C(=O)Nc1ccc(F)cc1)C12CC(NC(=O)c3ccc(Cl)cc3F)(C1)C2` [Example 52, 4-chloro-2-fluoro-N-[3-[(1S)-2-(4-fluoroanilino)-1-methyl-2-oxo-ethyl]-1-bicyclo[1.1.1]pentanyl]benzamide] are 53.3 nM and 2.5 nM. For `CC(C(=O)Nc1ccc(Cl)nc1)C12CC(NC(=O)c3cccc(Cl)c3)(C1)C2` (single isomer, unassigned) [Example 17, 3-chloro-N-(3-(1-((6-chloropyridin-3-yl)amino)-1-oxopropan-2-yl)bicyclo[1.1.1]pentan-1-yl)benzamide], the IC50 in test [1] amounted to 179 nM; in test [2], 5.26 nM. The corresponding values for `CC(C(=O)Nc1ccc(Cl)nc1)C12CC(NC(=O)c3ccc(Cl)c(Cl)c3)(C1)C2` (single isomer, unassigned) [Example 15, 3,4-dichloro-N-(3-(1-((6-chloropyridin-3-yl)amino)-1-oxopropan-2-yl)bicyclo[1.1.1]pentan-1-yl)benzamide] are 1100 nM and 4.46 nM. The corresponding values for `Cc1cc(C(=O)NC23CC([C@@H](C)C(=O)Nc4ccc(F)cc4)(C2)C3)ccc1F` [Example 46, 4-fluoro-N-[3-[(1R)-2-(4-fluoroanilino)-1-methyl-2-oxo-ethyl]-1-bicyclo[1.1.l]pentanyl]-3-methyl-benzamide] are 139 nM and 2.12 nM. For `O=C(NC12CC(C3(C(=O)Nc4ccc(F)cc4)CCC3)(C1)C2)c1ccc(Cl)c(Cl)c1` [Example 5, 3,4-Dichloro-N-(3-(1-((4-fluorophenyl)carbamoyl)cyclobutyl)bicyclo[1.1.1]pentan-1-yl)benzamide], in that order: 44.7 nM and 2.12 nM. For the compound `CC(C(=O)Nc1ccc(Cl)cc1)C12CC(NC(=O)c3cccc(Cl)c3)(C1)C2` (single isomer, unassigned) [Example 7, 3-Chloro-N-(3-(1-((4-chlorophenyl)amino)-1-oxopropan-2-yl)bicyclo [1.1.1]pentan-1-yl) Benzamide], the IC50 worked out at 48.2 nM in test [1] and 1.05 nM in test [2]. In the case of `CC(C(=O)Nc1ccc(F)cc1)C12CC(NC(=O)c3cccc(Cl)c3)(C1)C2` (single isomer, unassigned) [Example 1, 3-Chloro-N-(3-(1-((4-fluorophenyl)amino)-1-oxopropan-2-yl)bicyclo[1.1.1]pentan-1-yl)benzamide], the IC50 in test [1] amounted to 113 nM; in test [2] it was 3.05 nM. Regarding `CC(C(=O)Nc1ccc(Cl)c(F)c1)C12CC(NC(=O)c3cccc(Cl)c3)(C1)C2` (single isomer, unassigned) [Example 11, 3-chloro-N-(3-(1-((4-chloro-3-fluorophenyl)amino)-1-oxopropan-2-yl)bicyclo[1.1.1]pentan-1-yl)benzamide], the IC50 in test [1] is 525 nM; in test [2], 1.57 nM.

On to `C[C@H](C(=O)Nc1ccc(F)cc1)C12CC(NC(=O)c3cc(Cl)ccc3F)(C1)C2` [Example 56, 5-chloro-2-fluoro-N-[3-[(1S)-2-(4-fluoroanilino)-1-methyl-2-oxo-ethyl]-1-bicyclo[1.1.1]pentanyl]benzamide], for which the IC50 stood at 328 nM in test [1] and 2.51 nM in test [2]. The corresponding values for `C[C@H](C(=O)Nc1ccc(F)cc1)C12CC(NC(=O)c3cc(F)c(F)c(F)c3)(C1)C2` [Example 145, (S)-3,4,5-trifluoro-N-(3-(1-((4-fluorophenyl)amino)-1-oxopropan-2-yl)bicyclo[1.1.1]pentan-1-yl)benzamide] are 49 nM and 3.04 nM. `C[C@H](C(=O)Nc1ccc(F)cc1)C12CC(NC(=O)OC3CCCC3)(C1)C2` [Example 77, cyclopentyl (S)-(3-(1-((4-fluorophenyl)amino)-1-oxopropan-2-yl)bicyclo[1.1.1]pentan-1-yl)carbamate] showed an IC50 in test [1] of 452 nM. For `C[C@H](C(=O)Nc1ccc(F)c(Cl)c1)C12CC(NC(=O)c3ccc(Cl)c(Cl)c3)(C1)C2` [Example 96, (S)-3,4-dichloro-N-(3-(1-((3-chloro-4-fluorophenyl)amino)-1-oxopropan-2-yl)bicyclo[1.1.1]pentan-1-yl)benzamide], in test [2], the IC50 is 78.4 nM. Same read-out and setting: in the case of `Cc1cc(C(=O)NC23CC([C@@H](C)C(=O)Nc4ccc(F)cc4)(C2)C3)ccc1F` [Example 39, 4-fluoro-N-[3-[(1R)-2-(4-fluoroanilino)-1-methyl-2-oxo-ethyl]-1-bicyclo[1.1.l]pentanyl]-3-methyl-benzamide] it was 201 nM. Same read-out and setting: the result for `C[C@@H](C(=O)Nc1ccc(C(F)(F)F)cc1)C12CC(NC(=O)c3ccc(Cl)c(Cl)c3)(C1)C2` [Example 92, (R)-3,4-dichloro-N-(3-(1-oxo-1-((4-(trifluoromethyl)phenyl)amino)propan-2-yl)bicyclo[1.1.1]pentan-1-yl)benzamide] reads 6.43 nM; that for `CC(C(=O)Nc1ccc(F)cc1)C12CC(NC(=O)c3noc4c3CCCC4)(C1)C2` (centres unmarked) [Example 115, N-[3-[2-(4-fluoroanilino)-1-methyl-2-oxo-ethyl]-1-bicyclo[1.1.1]pentanyl]-4,5,6,7-tetrahydro-1,2-benzoxazole-3-carboxamide], 67 nM. Still for that read-out and setting: the result for `O=C(NC12CC(C3(C(=O)Nc4ccc(F)cc4)COC3)(C1)C2)c1cccc(Cl)c1` [Example 104, 3-(3-(3-Chlorobenzamido)bicyclo[1.1.1]pentan-1-yl)-N-(4-fluorophenyl)oxetane-3-carboxamide] reads 20.7 nM; that for `Cc1c(Cl)cccc1NC(=O)NC12CC([C@H](C)C(=O)Nc3ccc(F)cc3)(C1)C2` [Example 84, (S)-2-(3-(3-(3-chloro-2-methylphenyl)ureido)bicyclo [1.1.1]pentan-1-yl)-N-(4-fluorophenyl)propanamide], 77.2 nM. In the case of `CC(C(=O)Nc1ccc(Cl)cc1)C12CC(NC(=O)OC3CC3)(C1)C2` (single isomer, unassigned) [Example 20, Cyclopropyl (3-(1-((4-chlorophenyl)amino)-1-oxopropan-2-yl)bicyclo [1.1.1]pentan-1-yl) carbamate], in test [2], the IC50 was found to be 29.2 nM. For `CC(C(=O)Nc1ccc(Cl)cc1)C12CC(NC(=O)c3cccc(C#N)c3)(C1)C2` (single isomer, unassigned) [Example 12, N-(3-(1-((4-chlorophenyl)amino)-1-oxopropan-2-yl)bicyclo[1.1.1]pentan-1-yl)-3-cyanobenzamide], the IC50 in test [2] came to 97.9 nM.

The record behind these values is patent US11478461B2, “[1.1.1] bicyclo compounds as indoleamine 2,3-dioxygenase inhibitors” (Merck Sharp & Dohme Corp., priority 2018, dated 2022).
